# According to patent US20090311237A1, “Combination therapy using a soluble hyaluronidase and a bisphosphonate” (priority 2008, published 2009):
# Where two headings read alike, the source gives them in different places.
# Assay: Pharmacokinetics of ZA in pig serum after IV or SC infusion with or without rHuPH20 (LC-MS-MS, non-compartmental analysis)
# Format: in vivo
# Description: A pharmacokinetic study of zoledronic acid (ZA) co-administered with rHuPH20 in female Yorkshire swines was conducted. The primary objective of the study was to determine the bioavailability of zoledronic acid dosed via subcutaneous (SC) co-administration with human recombinant hyaluronidase PH20 (rHuPH20) and to compare the overall exposure to an equivalent IV dose.
# Animals in Study Group 1 were dosed with 0.15 mg/kg ZA given via a 20-minute IV infusion. Animals in Study Groups 2 and 3 were dosed subcutaneously (SC) with 0.15 mg/kg ZA without and with rHuPH20, respectively, in different SC delivery volumes.
# Following ZA dose administration, serial blood samples were collected via vascular access ports (VAPs) for serum preparation and determination of ZA concentrations. Blood collection times were at 1, 3, 5, 10, 15, 20, 30, 45, and 60 minutes, and at 1.5, 2, 3, 4, 6, 8, 10, 24, 48, and 72 hours post dose. Urine samples were also collected to compare excretion characteristics between IV and SC routes of administration. Collection times for urine were at 15 minutes before dosing (−15 min.), continuously from dose initiation to 2 hours post dose, and at 4, 6, 8, and 24 hours post dose thereafter.
# Serum concentration of ZA was determined using a qualified LC-MS-MS assay after derivatization with diazomethane (Zhu, L S et al. (2006) Rapid Commun. Mass Spectrom. 20: 3421-3426; “Qualification Data of An LC-MS/MS Method for the Determination of Zoledronate in Porcine Serum”, MDS Pharma Services Study No. AA43671-01, Report Date 14 Sep. 2007). The assay range was from 2.0 to 400 ng/mL with a lower limit of quantitation (LLOQ) at 2.0 ng/mL. Urine concentration of ZA was determined by a similar well qualified LC-MS-MS method (“Qualification Data of An LC-MS/MS Method for the Determination of Zoledronate in Porcine Urine”, MDS Pharma Services Study No. AA43671-02, Report Date 14 Sep. 2007) with an assay LLOQ at 10 ng/mL.
# Pharmacokinetic (PK) analyses of ZA serum concentration versus time data were conducted using WinNonlin v5.1 (Pharsight, Mountain View, Calif.). Non-compartmental analysis was used for derivation of primary and secondary pharmacokinetic (PK) parameters. AUC, Cmax, and Tmax were compared between dose routes, between co-administration with rHuPH20, and with dose of rHuPH20.
# [1] = female, Yorkshire, pig, serum, subcutaneous, […], pig 66, Study Group 3, SC, ZA […], rHuPH20 10000 U/mL, 100 mL over 16 min, read-out: Zoledronic Acid Serum Concentration
# [2] = female, Yorkshire, pig, serum, subcutaneous, […], pig 68, Study Group 3, SC, ZA […], rHuPH20 10000 U/mL, 10 mL over 1.6 min, read-out: Zoledronic Acid Serum Concentration
# [3] = female, Yorkshire, pig, serum, subcutaneous, pig 56, Study Group 3, SC, ZA […], rHuPH20 10000 U/mL, 25 mL over 4 min, read-out: Zoledronic Acid Serum Concentration
# [4] = female, Yorkshire, pig, serum, subcutaneous, pig 58, Study Group 3, SC, ZA […], rHuPH20 10000 U/mL, 50 mL over 8 min, read-out: Zoledronic Acid Serum Concentration
# [5] = female, Yorkshire, pig, serum, subcutaneous, pig 68, Study Group 3, SC, ZA […], rHuPH20 10000 U/mL, 10 mL over 1.6 min, read-out: Zoledronic Acid Serum Concentration
smiles,measurement,setting,value
"O=P(O)(O)C(O)(Cn1ccnc1)P(=O)(O)O [ZA, 1-hydroxy-2-(1H-imidazol-1-yl)ethylidene-1,1-bisphosphonic acid]",concentration at 4 h,"female, Yorkshire, pig, serum, subcutaneous, […], pig 64, Study Group 3, SC, ZA […], rHuPH20 10000 U/mL, 100 mL over 16 min, read-out: Zoledronic Acid Serum Concentration",19 ng/mL
same,concentration at 6 h,"female, Yorkshire, pig, serum, subcutaneous, […], pig 64, Study Group 3, SC, ZA […], rHuPH20 10000 U/mL, 100 mL over 16 min, time 6 h, read-out: Zoledronic Acid Serum Concentration",5.75 ng/mL
same,concentration at 0.05 h,[1],12 ng/mL
same,concentration at 0.333 h,[1],103 ng/mL
same,concentration at 0.5 h,[1],78.2 ng/mL
same,concentration at 1 h,[1],53.3 ng/mL
same,concentration at 2 h,[1],23.2 ng/mL
same,concentration at 3 h,[1],11.4 ng/mL
same,concentration at 4 h,[1],6.39 ng/mL
same,concentration at 0.05 h,[2],342 ng/mL
same,concentration at 0.333 h,[2],201 ng/mL
same,concentration at 0.5 h,[2],175 ng/mL
same,concentration at 0.05 h,[3],101 ng/mL
same,concentration at 0.333 h,[3],235 ng/mL
same,concentration at 0.5 h,[3],194 ng/mL
same,concentration at 1 h,[3],128 ng/mL
same,concentration at 2 h,[3],59.7 ng/mL
same,concentration at 3 h,[3],31.2 ng/mL
same,concentration at 4 h,[3],17.6 ng/mL
same,concentration at 5 h,"female, Yorkshire, pig, serum, subcutaneous, pig 56, Study Group 3, SC, ZA […], rHuPH20 10000 U/mL, 25 mL over 4 min, time 5 h, read-out: Zoledronic Acid Serum Concentration",19.6 ng/mL
same,concentration at 6 h,"female, Yorkshire, pig, serum, subcutaneous, pig 56, Study Group 3, SC, ZA […], rHuPH20 10000 U/mL, 25 mL over 4 min, time 6 h, read-out: Zoledronic Acid Serum Concentration",7.21 ng/mL
same,concentration at 8 h,"female, Yorkshire, pig, serum, subcutaneous, pig 56, Study Group 3, SC, ZA […], rHuPH20 10000 U/mL, 25 mL over 4 min, time 8 h, read-out: Zoledronic Acid Serum Concentration",2.28 ng/mL
same,concentration at 0.05 h,[4],73.8 ng/mL
same,concentration at 0.333 h,[4],270 ng/mL
same,concentration at 0.5 h,[4],177 ng/mL
same,concentration at 1 h,[4],107 ng/mL
same,concentration at 1 h,[5],90.6 ng/mL
same,concentration at 2 h,[5],43.2 ng/mL
same,concentration at 3 h,[5],17 ng/mL
same,concentration at 4 h,[5],7.09 ng/mL
same,concentration at 6 h,"female, Yorkshire, pig, serum, subcutaneous, pig 68, Study Group 3, SC, ZA […], rHuPH20 10000 U/mL, 10 mL over 1.6 min, time 6 h, read-out: Zoledronic Acid Serum Concentration",2.68 ng/mL
same,concentration at […],"female, Yorkshire, pig, serum, subcutaneous, pig 68, Study Group 3, SC, ZA […], rHuPH20 10000 U/mL, 10 mL over 1.6 min, time […], read-out: Zoledronic Acid Serum Concentration",50.5 ng/mL
same,Zoledronic Acid Serum Concentration,"pig 56, Study Group 3, SC, ZA […], rHuPH20 10000 U/mL, 25 mL over 4 min, time 10 h",BLQ^a (below assay limit of quantification (2.0 ng/mL))
same,Zoledronic Acid Serum Concentration,"pig 56, Study Group 3, SC, ZA […], rHuPH20 10000 U/mL, 25 mL over 4 min, time 24 h",BLQ (below assay limit of quantification (2.0 ng/mL))
same,Zoledronic Acid Serum Concentration,"pig 56, Study Group 3, SC, ZA […], rHuPH20 10000 U/mL, 25 mL over 4 min, time 48 h",BLQ (below assay limit of quantification (2.0 ng/mL))
same,Zoledronic Acid Serum Concentration,"pig 56, Study Group 3, SC, ZA […], rHuPH20 10000 U/mL, 25 mL over 4 min, time 72 h",BLQ (below assay limit of quantification (2.0 ng/mL))
same,Zoledronic Acid Serum Concentration,"pig 56, Study Group 3, SC, ZA […], rHuPH20 10000 U/mL, 25 mL over 4 min, time […]",BLQ (below assay limit of quantification (2.0 ng/mL))
same,Zoledronic Acid Serum Concentration,"pig 58, Study Group 3, SC, ZA […], rHuPH20 10000 U/mL, 50 mL over 8 min, time 8 h",BLQ (below assay limit of quantification (2.0 ng/mL))
same,Zoledronic Acid Serum Concentration,"pig 58, Study Group 3, SC, ZA […], rHuPH20 10000 U/mL, 50 mL over 8 min, time 10 h",BLQ (below assay limit of quantification (2.0 ng/mL))
same,Zoledronic Acid Serum Concentration,"pig 58, Study Group 3, SC, ZA […], rHuPH20 10000 U/mL, 50 mL over 8 min, time 24 h",BLQ (below assay limit of quantification (2.0 ng/mL))
same,Zoledronic Acid Serum Concentration,"pig 58, Study Group 3, SC, ZA […], rHuPH20 10000 U/mL, 50 mL over 8 min, time 48 h",BLQ (below assay limit of quantification (2.0 ng/mL))
same,Zoledronic Acid Serum Concentration,"pig 58, Study Group 3, SC, ZA […], rHuPH20 10000 U/mL, 50 mL over 8 min, time 72 h",BLQ (below assay limit of quantification (2.0 ng/mL))
same,Zoledronic Acid Serum Concentration,"pig 58, Study Group 3, SC, ZA […], rHuPH20 10000 U/mL, 50 mL over 8 min, time […]",BLQ (below assay limit of quantification (2.0 ng/mL))
same,Zoledronic Acid Serum Concentration,"pig 64, Study Group 3, SC, ZA […], rHuPH20 10000 U/mL, 100 mL over 16 min, time 8 h",BLQ (below assay limit of quantification (2.0 ng/mL))
same,Zoledronic Acid Serum Concentration,"pig 64, Study Group 3, SC, ZA […], rHuPH20 10000 U/mL, 100 mL over 16 min, time 10 h",BLQ (below assay limit of quantification (2.0 ng/mL))
same,Zoledronic Acid Serum Concentration,"pig 64, Study Group 3, SC, ZA […], rHuPH20 10000 U/mL, 100 mL over 16 min, time 24 h",BLQ (below assay limit of quantification (2.0 ng/mL))
same,Zoledronic Acid Serum Concentration,"pig 64, Study Group 3, SC, ZA […], rHuPH20 10000 U/mL, 100 mL over 16 min, time 48 h",BLQ (below assay limit of quantification (2.0 ng/mL))
same,Zoledronic Acid Serum Concentration,"pig 64, Study Group 3, SC, ZA […], rHuPH20 10000 U/mL, 100 mL over 16 min, time 72 h",BLQ (below assay limit of quantification (2.0 ng/mL))
same,Zoledronic Acid Serum Concentration,"pig 64, Study Group 3, SC, ZA […], rHuPH20 10000 U/mL, 100 mL over 16 min, time […]",BLQ (below assay limit of quantification (2.0 ng/mL))
same,Zoledronic Acid Serum Concentration,"pig 66, Study Group 3, SC, ZA […], rHuPH20 10000 U/mL, 100 mL over 16 min, time 6 h",BLQ (below assay limit of quantification (2.0 ng/mL))
same,Zoledronic Acid Serum Concentration,"pig 66, Study Group 3, SC, ZA […], rHuPH20 10000 U/mL, 100 mL over 16 min, time 8 h",BLQ (below assay limit of quantification (2.0 ng/mL))
same,Zoledronic Acid Serum Concentration,"pig 66, Study Group 3, SC, ZA […], rHuPH20 10000 U/mL, 100 mL over 16 min, time 10 h",BLQ (below assay limit of quantification (2.0 ng/mL))
same,Zoledronic Acid Serum Concentration,"pig 66, Study Group 3, SC, ZA […], rHuPH20 10000 U/mL, 100 mL over 16 min, time 24 h",BLQ (below assay limit of quantification (2.0 ng/mL))
same,Zoledronic Acid Serum Concentration,"pig 66, Study Group 3, SC, ZA […], rHuPH20 10000 U/mL, 100 mL over 16 min, time 48 h",BLQ (below assay limit of quantification (2.0 ng/mL))
same,Zoledronic Acid Serum Concentration,"pig 66, Study Group 3, SC, ZA […], rHuPH20 10000 U/mL, 100 mL over 16 min, time 72 h",BLQ (below assay limit of quantification (2.0 ng/mL))
same,Zoledronic Acid Serum Concentration,"pig 66, Study Group 3, SC, ZA […], rHuPH20 10000 U/mL, 100 mL over 16 min, time […]",BLQ (below assay limit of quantification (2.0 ng/mL))
same,Zoledronic Acid Serum Concentration,"pig 68, Study Group 3, SC, ZA […], rHuPH20 10000 U/mL, 10 mL over 1.6 min, time 8 h",BLQ (below assay limit of quantification (2.0 ng/mL))
same,Zoledronic Acid Serum Concentration,"pig 68, Study Group 3, SC, ZA […], rHuPH20 10000 U/mL, 10 mL over 1.6 min, time 10 h",BLQ (below assay limit of quantification (2.0 ng/mL))
same,Zoledronic Acid Serum Concentration,"pig 68, Study Group 3, SC, ZA […], rHuPH20 10000 U/mL, 10 mL over 1.6 min, time 24 h",BLQ (below assay limit of quantification (2.0 ng/mL))
same,Zoledronic Acid Serum Concentration,"pig 68, Study Group 3, SC, ZA […], rHuPH20 10000 U/mL, 10 mL over 1.6 min, time 48 h",BLQ (below assay limit of quantification (2.0 ng/mL))
same,Zoledronic Acid Serum Concentration,"pig 68, Study Group 3, SC, ZA […], rHuPH20 10000 U/mL, 10 mL over 1.6 min, time 72 h",BLQ (below assay limit of quantification (2.0 ng/mL))
same,Zoledronic Acid Serum Concentration,"pig 68, Study Group 3, SC, ZA […], rHuPH20 10000 U/mL, 10 mL over 1.6 min, time […]",BLQ (below assay limit of quantification (2.0 ng/mL))
same,T½ λz,"pig, ZA […] 20-min IV infusion, individual pigs 57, 61, 67",46.8 min
